From patent publication US12371464B2, “Polypeptides and uses thereof” (MEDIMMUNE LIMITED, priority 2020, dated 2025)
Numbered stars: 1 amine (or outer) side, 2 acyl side, 3 side chain; on linkers, the order of the positions; unused ones are H or OH. Bridge positions count the residues as written; N and C are the ends. Square brackets hold non-standard residues; d marks the D form. Side chains are listed from the residue outwards. Peptide text beside a SMILES is read from it. * marks the point of attachment. C18 diacid = O=C(O)CCCCCCCCCCCCCCCCC(=O)*; γGlu = O=C(O)[C@H](CCC(=O)[*:2])N[*:1]; αMeF = C[C@](N)(Cc1ccccc1)C(=O)O; Aib = CC(C)(N)C(=O)O

Experiments:
lean rats = experiment: Rat acute food intake study; assay type: in vivo, Sprague Dawley rats; settings: 20 nmol/kg subcutaneously
Procedure: Male Sprague Dawley rats were obtained from Taconic Denmark, ApS at approximately 7 weeks of age. . . . Rats were implanted with a microchip for identification, housed 4/cage with enrichment, free access to food and water, and allowed one week acclimatisation while non-invasive characterization was performed. Rats were on a 12:12 light:dark cycle that switches at 1 pm:1 am. Food intake was monitored via the HM2 system (Lafayette Instrument) that allows for monitoring in a home cage. As each rat enters an access tunnel to feed, an IR beam is broken, and the implanted microchip is read. Resulting changes to food weight is then assigned to the specific animal. Social order has shown no impact to overall feeding patterns and amounts.
Rats were sorted into groups based on Day-1 body weight and 24-hour accumulated food intake (n=7 per group). On Day 0 rats were weighed, then fasted for 6 hours. Thirty (30) minutes prior to the reintroduction of food, rats were dosed subcutaneously (5 ml/kg) with 20 nmol/kg of test compound or 60 nmol/kg peptide 1 (pramlintide) diluted in an appropriate vehicle, after which food was returned, and lights went out. Automated food intake was monitored for the following 3 days, and rats were weighed once per day.
Food intake per rat was batched into 1-hour intervals and integrated into Gubra's GubraView data management system. Discrete food intake data was exported into MS Excel from which cumulative food intake data was generated. Cumulative food intake data was then transposed into GraphPad Prism (v8.0.1) for analysis of dark period feeding

[1] = Thioflavin T fibrillation assay; assay type: physicochemical; settings: 1 mg/mL in 25 mM sodium acetate buffer pH 4.0, 37° C., 6 days, orbital shaking; >144 h = no increase
Method in brief: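 Peptides at 1 mg/mL in 25 mM sodium acetate pH 4.0 were mixed with ThT (0.25 mM stock) and held 6 days at 37 °C with intermittent orbital shaking at 500–750 rpm. Fluorescence (ex 444/em 480 nm) was read every 30 min, with buffer baseline correction and 5 replicates. Value: mean time to a detectable fluorescence increase.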

## CC[C@H](C)[C@H](NC(=O)[C@@H]1CCCN1C(=O)CNC(=O)[C@](C)(Cc1ccccc1)NC(=O)[C@H](CC(N)=O)NC(=O)[C@H](CC(N)=O)NC(=O)[C@H](CO)NC(=O)[C@H](CO)NC(=O)[C@H](Cc1c[nH]cn1)NC(=O)[C@H](CCCNC(=N)N)NC(=O)[C@H](CC(C)C)NC(=O)[C@H](Cc1ccccc1)NC(=O)[C@H](CC(N)=O)NC(=O)[C@H](C)NC(=O)[C@H](CC(C)C)NC(=O)[C@H](CCCNC(=N)N)NC(=O)[C@H](CCC(N)=O)NC(=O)[C@@H](NC(=O)[C@H](C)NC(=O)[C@@H]1CSSC[C@H](NC(=O)[C@@H](N)CCCCNC(=O)CC[C@H](NC(=O)CC[C@H](NC(=O)CCCCCCCCCCCCCCCCC(=O)O)C(=O)O)C(=O)O)C(=O)N[C@@H](CC(N)=O)C(=O)N[C@@H]([C@@H](C)O)C(=O)N[C@@H](C)C(=O)N[C@@H]([C@@H](C)O)C(=O)N1)[C@@H](C)O)C(=O)N[C@@H](CC(C)C)C(=O)N1CCC[C@H]1C(=O)N1CCC[C@H]1C(=O)N[C@H](C(=O)N[C@@H](CC(N)=O)C(=O)N[C@H](C(=O)NCC(=O)N[C@@H](CO)C(=O)N[C@@H](CC(N)=O)C(=O)N[C@H](C(=O)N[C@@H](Cc1ccc(O)cc1)C(N)=O)[C@@H](C)O)C(C)C)[C@@H](C)O [Peptide 20, K(γE-γE-C18diacid)[CNTATC]ATQRLANFLRHSSNN(αMePhe)GPILPPTNVGSNTY-amide] (H-K([γGlu-γGlu-C18 diacid])CNTATCATQRLANFLRHSSNN[αMeF]GPILPPTNVGSNTY-NH2; disulfide 2-7; N-terminus assumed)
Lean rats
  Cummulative food intake (% vehicle treated intake) At 12 h: 27 % vehicle treated intake
[1]
  Time taken to detect increase in fluorescence intensity: >144 h

## CC[C@H](C)[C@H](NC(=O)[C@@H]1CCCN1C(=O)CNC(=O)[C@H](Cc1ccccc1)NC(=O)[C@H](CC(N)=O)NC(=O)[C@H](CC(N)=O)NC(=O)[C@H](CO)NC(=O)[C@H](CO)NC(=O)[C@H](Cc1c[nH]cn1)NC(=O)C(C)(C)NC(=O)[C@H](CC(C)C)NC(=O)[C@H](Cc1ccccc1)NC(=O)[C@H](CC(N)=O)NC(=O)[C@H](C)NC(=O)[C@H](CC(C)C)NC(=O)[C@H](CCCNC(=N)N)NC(=O)[C@H](CCC(N)=O)NC(=O)[C@@H](NC(=O)[C@H](C)NC(=O)[C@@H]1CSSC[C@H](NC(=O)[C@H](CCCCN)NC(=O)[C@@H](N)CCCCNC(=O)CC[C@H](NC(=O)CCCCCCCCCCCCCCCCC(=O)O)C(=O)O)C(=O)N[C@@H](CC(N)=O)C(=O)N[C@@H]([C@@H](C)O)C(=O)N[C@@H](C)C(=O)N[C@@H]([C@@H](C)O)C(=O)N1)[C@@H](C)O)C(=O)N[C@@H](CC(C)C)C(=O)N1CCC[C@H]1C(=O)N1CCC[C@H]1C(=O)N[C@H](C(=O)N[C@@H](CC(N)=O)C(=O)N[C@H](C(=O)NCC(=O)N[C@@H](CO)C(=O)N[C@@H](CC(N)=O)C(=O)N[C@H](C(=O)N[C@@H](Cc1ccc(O)cc1)C(N)=O)[C@@H](C)O)C(C)C)[C@@H](C)O [Peptide 129] (H-K([γGlu-C18 diacid])KCNTATCATQRLANFL[Aib]HSSNNFGPILPPTNVGSNTY-NH2; disulfide 3-8; N-terminus assumed)
Lean rats
  Cummulative food intake (% vehicle treated intake) At 12 h: 29 % vehicle treated intake
Lean rats; at 48 h
  Cummulative food intake (% vehicle treated intake) At 48 h: 51 % vehicle treated intake
[1]
  Time taken to detect increase in fluorescence intensity: >144 h
